These results are taken from PMC6434189, “Peperomin E and its orally bioavailable analog induce oxidative stress-mediated apoptosis of acute myeloid leukemia progenitor cells by targeting thioredoxin reductase” (Redox Biology, 2019).

Series [1] deals with CD34+ NBM cells and hBMSCs. The experiment in a line: CCK-8 cell viability assay on normal CD34+ NBM cells and hBMSCs. The class given is cell-based, human. As to conditions: 48 h, CCK-8. On the procedure: (§1) The mononuclear cells were further enriched for CD34 positive cells using the MACS CD34 MicroBead kit following the manufacturer's protocol. Enriched CD34 cell-purity was measured by flow cytometry-based quantification of cells stained using an anti-CD34-FITC antigen. Isolated CD34^+ cells were pre-incubated in the IMDM-based serum-free media for 1 h before the addition of drugs. PepE was dissolved in DMSO to make a 100 mM stock solution and stored in aliquots at – 20 °C. The 100 mM stock solution was diluted with DMSO to 10 mM and then diluted with PBS to 1 mM before treating the cells at the indicated concentrations. DMAPE and Ara-C were diluted in PBS to 1 mM concentration before use.
(§2) Unless otherwise mentioned, 2 × 10^4 cells were seeded at 96-well plates (Corning, New York, USA) in the IMDM-based serum-free media for 1 h. Then, the cells were incubated with different concentrations of PepE and DMAPE at 37 °C in a 5% CO2 incubator for 48 h. At the end of the treatment, 10 μL CCK-8 solution was added to each well and incubated for an additional 2 h at 37 °C, and the absorbance at 450 nm was measured with a microplate reader (Thermo Scientific, Multiskan GO, Finland). Inhibition ratio (%) was calculated as [(absorbance of control − absorbance of the test sample)/absorbance of control] x 100%.

For the next series, the system named is primary CD34+ AML cells. The experiment in a line: CCK-8 cell viability assay on primary CD34+ AML cells. As to conditions: 48 h, CCK-8. The class given is cell-based, human. On the procedure:
as §1, §2
In general terms: Formazan colour is commonly taken as a measure of viable cells.

Another series has as its system KG-1a CD34+ cells. The experiment in a line: KG-1a-Luc CD34+ xenograft in NOD/SCID mice, bioluminescence. It counts as in vivo. As to conditions: 50 mg/kg i.g. daily, 5 weeks. On the procedure:
Six-week-old female NOD-SCID mice (obtained from the model animal research center of Nanjing University, Nanjing, China) were acclimated for 1 week and housed in groups of five. All animal studies were conducted under the guidelines approved by the Animal Care and Use Committee of the Nanjing University of Chinese Medicine (Nanjing, China). The mice were sublethally irradiated with 2.7 Gy before transplantation.
KG-1a cells tagged with a luciferase reporter gene (KG-1a-Luc) were obtained from Cobioer biotechnology Inc. (Nanjing, Jiangsu, China) and cultured in 90% IMDM supplemented with 10% FBS, 0.05 mM 2-Mercaptoethanol, and 1 μg/mL Puromycin, and grown at 37 °C in a 5% CO2 humidified incubator. CD34 positive cells were enriched (following the 2.3 method) and injected via the tail vein in a final volume of 0.2 mL PBS with 0.5% FBS. For analyzing the luciferase signal, 5 × 10^6 cells KG-1a-Luc cells were used for each recipient animal. Seven days after transplantation, mice with KG-1a-Luc implants were subjected to bioluminescent analysis based on the luciferase signal. Briefly, mice received D-luciferin phosphate solution (100 mg/kg) intravenously 10 min prior to imaging. They were then anesthetized with isoflurane inhalation and imaged using a Xenogen IVIS scanner (PerkinElmer, Waltham, MA, USA). The next day, mice showing successful implantations were randomly divided into the control, DMAPE low dose, DMAPE high dose, and Ara-C treatment groups (n = 5 in each group), which received daily i. g. saline buffer, DMAPE phosphate salt 25 mg/kg, DMAPE phosphate salt 50 mg/kg and Ara-C (50 mg/kg), respectively. The growth of KG-1a-Luc cells was monitored every week by their luciferase signal. Five weeks after the implantation, all mice were sacrificed and their livers, kidneys, and bone marrow were excised for ex vivo bioluminescent imaging. The bioluminescent signal intensity was all quantified using the Living Image software (version 4.2, Carliper Life Science, Inc., Hopkinton, MA, USA) and is presented as photons/second/cm^2/sr (sr denotes steradian).

For a further series, the target named is T1, Sec residue in TrxR1 (Homo sapiens, UniProt Q16881).
T1 construct: purchased Abcam ab204206
T1 sequence (Q16881 1-499 isoform Q16881-5): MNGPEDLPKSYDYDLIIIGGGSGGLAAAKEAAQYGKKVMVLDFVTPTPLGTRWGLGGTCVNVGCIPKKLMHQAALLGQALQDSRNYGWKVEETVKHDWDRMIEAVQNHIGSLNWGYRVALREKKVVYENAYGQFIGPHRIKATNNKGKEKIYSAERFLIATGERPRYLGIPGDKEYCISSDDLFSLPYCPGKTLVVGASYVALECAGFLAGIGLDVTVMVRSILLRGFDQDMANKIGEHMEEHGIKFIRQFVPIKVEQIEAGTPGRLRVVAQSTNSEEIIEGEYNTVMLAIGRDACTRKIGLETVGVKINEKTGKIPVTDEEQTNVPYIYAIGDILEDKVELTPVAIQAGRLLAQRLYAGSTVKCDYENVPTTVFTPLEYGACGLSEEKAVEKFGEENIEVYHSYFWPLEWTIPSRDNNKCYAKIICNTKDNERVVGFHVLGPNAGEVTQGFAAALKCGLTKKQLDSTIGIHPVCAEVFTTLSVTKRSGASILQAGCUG
The experiment in a line: BIAM labeling assay. It counts as biochemical. Particulars: pH 6.5; PepE 1, 5, 10 μM; DNCB 5 μM. On the procedure: To further assess whether the Sec residue in TrxR1 was the modified site of PepE. The BIAM labeling assay was performed according to previous report. Briefly, 100 μM BIAM stock solution in 100 mM Tris-HCl, 1 mM EDTA buffer (pH = 6.5) was freshly prepared before each test. The TrxR1 protein (1 μM) was incubated with different concentrations (1, 5, 10 μM) of PepE or 5 μM of DNCB (positive control) and DMSO (negative control) in 50 mM Tris-HCl, 1 mM EDTA buffer (pH = 7.5) and 400 μM NADPH at 37 °C. After incubation, 4 μL of the reaction mixture was withdrawn and added mixed with 20 μM of BIAM solution in 100 mM Tris-HCl, 1 mM EDTA assay buffer (pH = 6.5) for 30 min at 37 °C to allow selective alkylation of free Sec residues. The reaction was stopped by adding the IAA solution (final concentration 50 mM). The samples were then denatured in SDS buffer, boiled and subjected to SDS-PAGE and western-blotting on a 7.5% gel, and the separated proteins were transferred to nitrocellulose membrane. The enzymes labeled with BIAM were detected with HRP-conjugated streptavidin and enhanced chemiluminescence detection. The bands were analyzed using Gel-pro 32 software.

In the next series the target is T2, NADPH-reduced TrxR1 (Homo sapiens, UniProt Q16881).
T2 construct: purchased Abcam ab204206
T2 sequence (Q16881 1-499 isoform Q16881-5): T1 sequence (Q16881 1-499 isoform Q16881-5)
The experiment in a line: Bio-layer interferometry (BLI) binding assay, TrxR1. Particulars: NADPH-reduced TrxR1 0.9 μM, 25 °C. The method, then:
The binding kinetics of PepE or PepA to purified recombinant proteins were determined using BLI on an Octet RED 96 system (ForteBio, Shanghai, China) following the manufacturer's protocol. All interaction analyses were performed at 25 °C in PBS with 0.2% DMSO. Purified recombinant proteins (0.9 μM, the TrxR1 full length and TrxR1 protein fragment were pre-reduced by 400 μM of NADPH before test) were pre-labeled with biotin using […] (Abcam) following the manufacturer's instruction. Loading of the Dip and Read Super Streptavidin (SSA) Biosensors (ForteBio) were conducted by exposing biotinylated proteins to biosensor tips for 2 h. The 96-well microplates used in the Octet were filled with 200 μL sample or buffer per well and agitated at 1000 rpm. The loaded biosensors were washed in buffer for 600 s and transferred to wells containing PepE at concentrations of 0.625, 1.25, 2.5, 5, and 10 μM or PepA at concentrations of 1.25, 2.5, 5, 10 and 20 μM, respectively, in the buffer. […] Reference measurements were conducted using the buffer instead of PepE (or PepA). A parallel set of SA unloaded biosensors was prepared to act as a control. The sample-sensorgrams were corrected by subtracting the double reference curve. Kinetic parameters (Kon and Kdis) and affinity (KD) were determined from a global fit to a 1:1 binding model of the data between proteins and PepE using Octet software (ForteBio).

For a further series, the system named is TrxR1. Particulars: read-out: TrxR1 inhibition IC50; cited from earlier work.

“Also recorded” adds a separate entry of the source.

As to `Nc1ccn([C@@H]2O[C@H](CO)[C@@H](O)[C@@H]2O)c(=O)n1` [Ara-C, Cytarabine, reference compound], the “toxicity on NBM and hBMSC cells in side-by-side comparison” value in series [1] is “more toxic than PepE and DMAPE”. For the same compound, the “toxicity against AML progenitor cells” value with primary CD34+ AML cells is listed as “no apparent toxicity”. Besides, the “in vivo efficacy against KG-1a CD34+ cells” value in the series with KG-1a CD34+ cells is listed as “not obvious; also recorded: not significant”.

For the compound `O=[N+]([O-])c1ccc(Cl)c([N+](=O)[O-])c1` [DNCB, 1-chloro-2,4-dinitrobenzene, reference compound], the “BIAM alkylation of Sec residue of TrxR1” value at Sec residue in TrxR1 is “significantly block”.

`COc1cc(C(c2cc(OC)c3c(c2)OCO3)[C@@H]2COC(=O)[C@H]2C)cc2c1OCO2` [PepA, Peperomin A, reference compound] displayed a Kd on NADPH-reduced TrxR1 of 111 µM.

In the case of `C=C1C(=O)O[C@H]2[C@H]1CC/C(C)=C/CC[C@@]1(C)O[C@@H]21` [parthenolide, Parthenolide], the half-maximal inhibitory concentration (IC50) in the series with TrxR1 was approximately 3 µM.

Turning to `CC(C)=CC[C@@H](O)C1=CC(=O)c2c(O)ccc(O)c2C1=O` [shikonin], the IC50 with TrxR1 is approximately 1.6 µM.

A word on the Kd: it is the equilibrium constant for the complex coming apart. A high value points to weaker binding. The IC50 is the concentration that inhibits the measured activity by half.
